In the NIST ThermoML archive (doi:10.1021/je050333h):

Assays:
[1] = 101 kPa, Liquid; for speed of sound: Sing-around technique in a fixed-path interferometer
[2] = cn = amount concentration of the nth substance listed, in mol/dm3; details: 101 kPa, Liquid, c2 = 0; for speed of sound: Sing-around technique in a fixed-path interferometer

CC(C)CC(C)(C)C [2,2,4-trimethylpentane]
[1]
Details	kinematic viscosity [m2/s]	mass density [kg/m3]	speed of sound [m/s]
293.15 K	7.33e-07	690.6	1103.2
298.15 K	6.97e-07	686.3	1082.2
303.15 K	6.63e-07	680.84	1061.3
313.15 K	6.02e-07	673.37	1020.1
323.15 K	5.49e-07	664.65	979.5

CC(C)CC(C)(C)C [2,2,4-trimethylpentane] + CCCCC(CC)COC(=O)CC(C(=O)OCC(CC)CCCC)S(=O)(=O)[O-].[Na+]
[2]
Details	kinematic viscosity [m2/s]	mass density [kg/m3]	speed of sound [m/s]
293.15 K	7.33e-07	690.6	1103.2
298.15 K	6.97e-07	686.3	1082.2
303.15 K	6.63e-07	680.84	1061.3
313.15 K	6.02e-07	673.37	1020.1
323.15 K	5.49e-07	664.65	979.5
